The values below come from PMC10180065, “Mechanistic Studies of Arene–Ruthenium(II) Complexes with Carbothioamidopyrazoles as Alternative Cancer Drugs” (Molecules, 2023).

The subject of one data set is HT29. Briefly: MTT cytotoxicity, HT29. The class given is cell-based, human. Conditions: 48 h incubation, read-out: Cytotoxic effect, IC50. As to the method:
(§1) Cytotoxicity was evaluated against fifteen adherent human cancer cell lines using the MTT test: colorectal adenocarcinoma cells Caco2 (ATCC® HTB-37™), colorectal adenocarcinoma cells HT29 (ATCC® HTB-38™), colon colorectal carcinoma HCT116 (ATCC® CCL-247™), colon adenocarcinoma COLO205 (ATCC® CCL-222™), colorectal adenocarcinoma SW620 (ATCC® CCL-227™), colorectal adenocarcinoma grade IV LoVo (ATCC® CCL-229™), hepatocellular carcinoma Hep 3b (ATCC® HB-8064™), endometrium adenocarcinoma HEC1A (ATCC® HTB-112™), Ishikawa (99040201; Sigma–Aldrich Sigma, St. Louis, MO, USA), cervical adenocarcinoma cells HeLa (ATCC® CCL-2™), lung epithelial carcinoma A549 (ATCC® CRM-CCL-185™), breast epithelial adenocarcinoma cell positive for estrogen and progesterone receptors MCF7 (ATCC® HTB-22™) and negative for expression of estrogen receptor HCC38 (ATCC® CRL-2314™), acute promyelocytic leukemia HL-60 (ATCC® CCL-240™), skin melanoma WM115 (ATCC® CRL-1676™), and 1 suspension cancer cell line: acute lymphoblastic leukemia NALM6 (purchased from the German Collection of Microorganisms and Cell Cultures). HT29, NALM6, HCC-38 and HL-60 cells were cultured in RPMI 1640 medium (Thermo Fisher Scientific, Waltham, MA, USA) supplemented with 10% fetal bovine serum and antibiotic (gentamicin 25 μg ml^−1) (Gibco, Grand Island, New York, NY, USA). For the remaining tumor cell lines, Dulbecco’s minimal essential medium (DMEM, Lonza, Visp, Switzerland) supplemented with 10% fetal bovine serum and antibiotic instead of RPMI 1640 was used. In addition, Human Microvascular Endothelial Cells (HMEC1), which were obtained from the American Type Culture Collection (Manassas, VA, USA), were used as a model of normal cells. HMEC-1 were cultured in MCDB131 medium (Corning Life Sciences, Corning, NY, USA), supplemented with 10% fetal bovine serum, 10 ng/mL Epidermal Growth Factor (Millipore, Burlington, MA, USA) and 10 mM glutamine (Corning Life Sciences). All cells were grown at 37 °C in humidified atmosphere of 5% CO2 in air. The exponential growth of cells was maintained by regular passaging at 90% confluence three times a week using 0.025% trypsin/EDTA (Gibco, Grand Island, New York, NY, USA).
(§2) The cytotoxicity was tested by a standard MTT [3-(4,5-dimethylthiazol-2-yl)-2,5-diphenyltetrazolium bromide] (Sigma, St. Louis, MO, USA) microplate cell viability assay. The anticancer activity of the investigated compounds was evaluated in vitro on the basis of their ability to inhibit the proliferation of various cancer cells. Exponentially growing cells were seeded a day before the experiment into a 96-well microplate (Nunc, Roskilde, Denmark) at a density up to 6–8 × 10^3 cells/mL (depending on the cell line) and exposed to the test compounds at a wide range of concentrations for 48 h. Subsequently, various concentrations of the studied compounds (10^−7–10^−5 M) freshly prepared in DMSO (final concentration of <0.1% DMSO) and diluted with complete culture medium were added. After 48 h incubation, the cells were immediately subjected to a cell viability assay. At this time point, the number of viable cells in each well was estimated by the MTT test. Briefly, 50 µL (5 mg/mL final concentration) of MTT was added to each microplate well. This procedure was then followed by a three- to four-hour incubation at 37 °C. After incubation, MTT solution was replaced with 100 µL DMSO/well, which solubilized the formazan crystals formed by the dehydrogenases of metabolically active cells. Purple formazan absorbance was measured spectrophotometrically at 570 nm.

A further data set relates to Colo205. Briefly: MTT cytotoxicity, Colo205. The class given is cell-based, human. Conditions: 48 h incubation, read-out: Cytotoxic effect, IC50. The protocol: as §1, §2
The test system of a further data set is SW620. Kind of data set: MTT cytotoxicity, SW620. Conditions: 48 h incubation, read-out: Cytotoxic effect, IC50. It counts as cell-based, human. The protocol: as §1, §2
The next data set has as its system LoVo. Kind of data set: MTT cytotoxicity, LoVo. The class given is cell-based, human. Conditions: 48 h incubation, read-out: Cytotoxic effect, IC50. As to the method: as §1, §2
The subject of the next data set is Caco2. Briefly: MTT cytotoxicity, Caco2. The note with it: 48 h incubation, read-out: Cytotoxic effect, IC50. It counts as cell-based, human. As to the method: as §1, §2
Another data set deals with Hep 3b. Kind of data set: MTT cytotoxicity, Hep 3b. It counts as cell-based, human. The note with it: 48 h incubation, read-out: Cytotoxic effect, IC50. As to the method: as §1, §2
Data set [1] relates to HEC1A. Kind of data set: MTT cytotoxicity, HEC1A. Conditions: 48 h incubation, read-out: Cytotoxic effect, IC50. The class given is cell-based, human. As to the method: as §1, §2
The next data set has as its system Ishikawa. Briefly: MTT cytotoxicity, Ishikawa. It counts as cell-based, human. Conditions: 48 h incubation, read-out: Cytotoxic effect, IC50. As to the method:
as §1, §2

In a further data set the test system is Hela. Briefly: MTT cytotoxicity, Hela. The class given is cell-based, human. Conditions: 48 h incubation, read-out: Cytotoxic effect, IC50. As to the method:
as §1, §2

A further data set has as its system A549. Kind of data set: MTT cytotoxicity, A549. The class given is cell-based, human. The note with it: 48 h incubation, read-out: Cytotoxic effect, IC50. The protocol:
as §1, §2

The test system of the next data set is HCC38. Briefly: MTT cytotoxicity, HCC38. The class given is cell-based, human. Conditions: 48 h incubation, read-out: Cytotoxic effect, IC50. The protocol: as §1, §2
In a further data set the test system is MCF7. Briefly: MTT cytotoxicity, MCF7. The note with it: 48 h incubation, read-out: Cytotoxic effect, IC50. The class given is cell-based, human. The protocol:
as §1, §2

The subject of another data set is WM115. Briefly: MTT cytotoxicity, WM115. The note with it: 48 h incubation, read-out: Cytotoxic effect, IC50. It counts as cell-based, human. The protocol: as §1, §2
The subject of the next data set is NALM6. Kind of data set: MTT cytotoxicity, NALM6. It counts as cell-based, human. The note with it: 48 h incubation, read-out: Cytotoxic effect, IC50. The protocol:
as §1, §2

The test system of the next data set is HL60. Briefly: MTT cytotoxicity, HL60. The class given is cell-based, human. The note with it: 48 h incubation, read-out: Cytotoxic effect, IC50. The protocol:
as §1, §2

For data set [2], the system named is human microvascular endothelial cell line HMEC1. Briefly: MTT cytotoxicity, normal endothelial cells HMEC1. It counts as cell-based. Conditions: for IC50: HMEC1 normal endothelial cells, 48 h incubation, read-out: Cytotoxic effect, IC50; for IC50 for HMEC-1 higher than for cancer cells (selectivity): HMEC-1 vs cancer cells. The protocol:
as §1, §2

A further data set deals with human cancer cell lines. Kind of data set: MTT cytotoxicity, summary statements over the cancer cell line panel. The class given is cell-based. The note with it: read-out: IC50 for seven (2c) and six (3c) cancer cell lines. As to the method:
Cytotoxicity was evaluated against fifteen adherent human cancer cell lines using the MTT test: colorectal adenocarcinoma cells Caco2 (ATCC® HTB-37™), colorectal adenocarcinoma cells HT29 (ATCC® HTB-38™), colon colorectal carcinoma HCT116 (ATCC® CCL-247™), colon adenocarcinoma COLO205 (ATCC® CCL-222™), colorectal adenocarcinoma SW620 (ATCC® CCL-227™), colorectal adenocarcinoma grade IV LoVo (ATCC® CCL-229™), hepatocellular carcinoma Hep 3b (ATCC® HB-8064™), endometrium adenocarcinoma HEC1A (ATCC® HTB-112™), Ishikawa (99040201; Sigma–Aldrich Sigma, St. Louis, MO, USA), cervical adenocarcinoma cells HeLa (ATCC® CCL-2™), lung epithelial carcinoma A549 (ATCC® CRM-CCL-185™), breast epithelial adenocarcinoma cell positive for estrogen and progesterone receptors MCF7 (ATCC® HTB-22™) and negative for expression of estrogen receptor HCC38 (ATCC® CRL-2314™), acute promyelocytic leukemia HL-60 (ATCC® CCL-240™), skin melanoma WM115 (ATCC® CRL-1676™), and 1 suspension cancer cell line: acute lymphoblastic leukemia NALM6 (purchased from the German Collection of Microorganisms and Cell Cultures). […]
The cytotoxicity was tested by a standard MTT [3-(4,5-dimethylthiazol-2-yl)-2,5-diphenyltetrazolium bromide] […] The anticancer activity of the investigated compounds was evaluated in vitro on the basis of their ability to inhibit the proliferation of various cancer cells. […]

A further data set can be described thus: Lipophilicity by RP-TLC. It counts as physicochemical. The arrangement: key: RM = log(1/Rf − 1), Rf = a/b. Conditions: eluent AcCN: H2O at 30–70% v/v, 22 °C. The protocol: All the experimental solutions of standard substances (0.1 mg/mL) were prepared by dissolving ligands (1a–1d) or ruthenium complexes (2a/3a–2d/3d) in ethanol. Commercially-available octadecyl-modified silica aluminum sheets (20 × 20 cm) were cut into 5 × 10 cm plates. The plates were manually spotted with 1.0 μL of freshly prepared solutions using automatic pipets, 5 mm from each edge. The chromatograms for all compounds (1a/2a/3a–1d/2d/3d) were developed using a horizontal developing chamber and the solvent migration distance was about 4.5 cm. The plates were visually inspected under UV light at 254 nm. Each zone was clearly marked and its distance was manually measured. The RP-TLC analyses of lipophilicity were performed at ambient temperature (22 °C). In this experiment, all measurements were performed in triplicate and the obtained results were used in further calculations. The acetonitrile and water mixtures for ligands 1a–1d and arene–ruthenium(II) complexes 2a/3a–2d/3d were used as mobile phases, with […] content increasing in the range of 30–70% v/v, at 5% intervals. Values of the chromatographic retention coefficient Rf (as shown Formula (1)) and RM (as shown Formula (2)), based on received chromatograms, were calculated and converted as follows:(1) Rf=a/b (2) RM=log1/Rf−1

Data set [3] concerns HEC1A. Briefly: Mitochondrial potential, JC-1 probe, HEC1A. The class given is cell-based, human. Conditions: IC50 concentration. The protocol:
Cells (10 × 10^3/well) were seeded in black 96-well plates and grown for 24 h to reach the log phase. […] After removing the medium, the cell monolayer was washed twice with PBS solution and 50 μL of the JC-1 probe at a final concentration of 5 μM was added to the wells of the plate. The cells were incubated with the dye for 30 min in a CO2 incubator. Subsequently, the changes in the fluorescence of monomers (λex = 485 nm and λem = 525 nm) and aggregates (λex = 530 nm and λem = 590 nm) using JC-1 were monitored. The results of the tested trials were presented as the ratio of fluorescence of aggregates and JC1 monomers as a percentage of control values, which was assumed to be 100%.

In general, IC50 refers to the concentration at which inhibition is half-maximal. For `Cc1ccc(C(C)C)cc1.NC(=S)n1nc(-c2ccccc2)cc1O.[Cl-].[Cl][Ru+]` [2c], the IC50 is 29.5 ± 2.1 µM in the data set on HT29; 32.6 ± 3.3 µM with Colo205; 49.4 ± 1.2 µM in the data set with SW620; 42.6 ± 3.2 µM with LoVo; over 200 µM in the data set on Caco2; 104 ± 4.4 µM with Hep 3b. The IC50 in the data set with HEC1A [1] is 24.5 ± 0.9 µM; with Ishikawa, 142 ± 7.4 µM; in the data set with Hela it was 124 ± 7.2 µM; in the data set with A549 it was over 200 µM; in the data set on HCC38, over 200 µM; with MCF7, 83.4 ± 7.3 µM. The IC50 is 26.7 ± 3.3 µM in the data set with WM115; 11.7 ± 1.6 µM in the data set on NALM6; 86.5 ± 8 µM with HL60; 192 ± 6.5 µM in [2]; under 50 µM in the data set with human cancer cell lines. The “IC50 for HMEC-1 higher than for cancer cells (selectivity)” value in data set [2] is 3–5 times. Also, the “Lipophilicity, RM” value in “Lipophilicity by RP-TLC” is reported as 2.27. In the data set on HEC1A [3], the “decrease in mitochondrial potential (JC-1)” value is about 50%.

On to `Cc1cc(C)n(C(N)=S)n1.Cc1ccc(C(C)C)cc1.[Cl-].[Cl][Ru+]` [2a], for which the IC50 in the data set on HT29 is 111 ± 4.9 µM; in the data set on Colo205, 110 ± 6.7 µM; in the data set on SW620, 118 ± 6.1 µM; with LoVo it was over 200 µM; in the data set with Caco2 it was over 200 µM; with Hep 3b, over 200 µM. In addition, the IC50 in the data set on HEC1A [1] is 62.3 ± 0.9 µM; in the data set with Ishikawa, 90.7 ± 3.7 µM; in the data set on Hela it was over 200 µM; with A549 it was 121 ± 3.6 µM; in the data set with HCC38, 84.4 ± 1.1 µM; in the data set on MCF7, over 200 µM. The IC50 with WM115 amounted to 60.2 ± 6.3 µM; in the data set on NALM6, 51.6 ± 5.7 µM; with HL60, 88.9 ± 6.1 µM; in [2], 156 ± 4.9 µM. In data set [2], the “IC50 for HMEC-1 higher than for cancer cells (selectivity)” value is 3–5 times. For the same molecule, the “Lipophilicity, RM” value in “Lipophilicity by RP-TLC” came out at 2.40.
